Experimental data as given in ChEMBL document CHEMBL2440080, “Synthesis and biological evaluation of novel acylhydrazone derivatives as potential antitumor agents” (Bioorg Med Chem, 2013).

Key:
HCT-116 = test: Cytotoxicity against human HCT116 cells after 48 hrs by sulforhodamine B assay; type: functional; settings: HCT-116, 48 h
HT-29 = test: Cytotoxicity against human HT-29 cells after 48 hrs by sulforhodamine B assay; type: functional; settings: HT-29, 48 h
SW-620 = test: Cytotoxicity against human SW620 cells after 48 hrs by sulforhodamine B assay; type: functional; settings: SW-620, 48 h
HCT-15 = test: Cytotoxicity against human HCT15 cells after 48 hrs by sulforhodamine B assay; type: functional; settings: HCT-15, 48 h
BT-549 = test: Cytotoxicity against human BT549 cells after 48 hrs by sulforhodamine B assay; type: functional; settings: BT-549, 48 h
IGROV-1 = test: Cytotoxicity against human IGROV1 cells after 48 hrs by sulforhodamine B assay; type: functional; settings: IGROV-1, 48 h
NCI-H226 = test: Cytotoxicity against human NCI-H226 cells after 48 hrs by sulforhodamine B assay; type: functional; settings: NCI-H226, 48 h
NCI-H460 = test: Cytotoxicity against human NCI-H460 cells after 48 hrs by sulforhodamine B assay; type: functional; settings: NCI-H460, 48 h
SN12C = test: Cytotoxicity against human SN12C cells after 48 hrs by sulforhodamine B assay; type: functional
A549 = test: Cytotoxicity against human A549/ATCC cells after 48 hrs by sulforhodamine B assay; type: functional; settings: A549, 48 h
HOP-62 = test: Cytotoxicity against human HOP62 cells after 48 hrs by sulforhodamine B assay; type: functional; settings: HOP-62, 48 h
Malme-3M = test: Cytotoxicity against human MALME-3M cells after 48 hrs by sulforhodamine B assay; type: functional
NCI-H23 = test: Cytotoxicity against human NCI-H23 cells after 48 hrs by sulforhodamine B assay; type: functional; settings: NCI-H23, 48 h
KM12 = test: Cytotoxicity against human KM12 cells after 48 hrs by sulforhodamine B assay; type: functional; settings: KM12, 48 h
SNB-75 = test: Cytotoxicity against human SNB75 cells after 48 hrs by sulforhodamine B assay; type: functional; settings: SNB-75, 48 h
T47D = test: Cytotoxicity against human T47D cells after 48 hrs by sulforhodamine B assay; type: functional
M14 = test: Cytotoxicity against human M14 cells after 48 hrs by sulforhodamine B assay; type: functional; settings: M14, 48 h
ACHN = test: Cytotoxicity against human ACHN cells after 48 hrs by sulforhodamine B assay; type: functional
HL-60(TB) = test: Cytotoxicity against human HL-60(TB) cells after 48 hrs by sulforhodamine B assay; type: functional; settings: HL-60, 48 h
RXF 393 = test: Cytotoxicity against human RXF393 cells after 48 hrs by sulforhodamine B assay; type: functional; settings: RXF 393, 48 h
OVCAR-5 = test: Cytotoxicity against human OVCAR5 cells after 48 hrs by sulforhodamine B assay; type: functional; settings: OVCAR-5, 48 h
SF-295 = test: Cytotoxicity against human SF295 cells after 48 hrs by sulforhodamine B assay; type: functional; settings: SF-295, 48 h
NCI/ADR-RES = test: Cytotoxicity against human NCI/ADR-RES cells after 48 hrs by sulforhodamine B assay; type: functional
SNB-19 = test: Cytotoxicity against human SNB19 cells after 48 hrs by sulforhodamine B assay; type: functional; settings: SNB-19, 48 h
SK-MEL-2 = test: Cytotoxicity against human SK-MEL-2 cells after 48 hrs by sulforhodamine B assay; type: functional; settings: SK-MEL-2, 48 h
MDA-MB-231 = test: Cytotoxicity against human MDA-MB-231 cells after 48 hrs by sulforhodamine B assay; type: functional; settings: MDA-MB-231, 48 h
TK-10 = test: Cytotoxicity against human TK10 cells after 48 hrs by sulforhodamine B assay; type: functional; settings: TK-10, 48 h
MOLT-4 = test: Cytotoxicity against human MOLT4 cells after 48 hrs by sulforhodamine B assay; type: functional; settings: MOLT-4, 48 h
SR = test: Cytotoxicity against human SR cells after 48 hrs by sulforhodamine B assay; type: functional
MDA-MB-468 = test: Cytotoxicity against human MDA-MB-468 cells after 48 hrs by sulforhodamine B assay; type: functional; settings: MDA-MB-468, 48 h
SK-MEL-28 = test: Cytotoxicity against human SK-MEL-28 cells after 48 hrs by sulforhodamine B assay; type: functional; settings: SK-MEL-28, 48 h
UO-31 = test: Cytotoxicity against human UO31 cells after 48 hrs by sulforhodamine B assay; type: functional; settings: UO-31, 48 h
CCRF-CEM = test: Cytotoxicity against human CCRF-CEM cells after 48 hrs by sulforhodamine B assay; type: functional
MDA-MB-435 = test: Cytotoxicity against human MDA-MB-435 cells after 48 hrs by sulforhodamine B assay; type: functional; settings: MDA-MB-435, 48 h
PC-3 = test: Cytotoxicity against human PC3 cells after 48 hrs by sulforhodamine B assay; type: functional; settings: PC-3, 48 h
LOX IMVI = test: Cytotoxicity against human LOXIMVI cells after 48 hrs by sulforhodamine B assay; type: functional
[1] = Cytotoxicity against human EKVX cells after 48 hrs by sulforhodamine B assay; type: functional
OVCAR-4 = test: Cytotoxicity against human OVCAR4 cells after 48 hrs by sulforhodamine B assay; type: functional; settings: OVCAR-4, 48 h
UACC-62 = test: Cytotoxicity against human UACC62 cells after 48 hrs by sulforhodamine B assay; type: functional; settings: UACC-62, 48 h
MCF7 = test: Cytotoxicity against human MCF7 cells after 48 hrs by sulforhodamine B assay; type: functional; settings: MCF7, 48 h
NCI-H522 = test: Cytotoxicity against human NCI-H522 cells after 48 hrs by sulforhodamine B assay; type: functional; settings: NCI-H522, 48 h
[2] = Cytotoxicity against human Hs 578T cells after 48 hrs by sulforhodamine B assay; type: functional
786-0 = test: Cytotoxicity against human 786-0 cells after 48 hrs by sulforhodamine B assay; type: functional; settings: 786-0, 48 h
SK-OV-3 = test: Cytotoxicity against human SKOV3 cells after 48 hrs by sulforhodamine B assay; type: functional; settings: SK-OV-3, 48 h
RPMI-8226 = test: Cytotoxicity against human RPMI8226 cells after 48 hrs by sulforhodamine B assay; type: functional; settings: RPMI-8226, 48 h
COLO 205 = test: Cytotoxicity against human COLO205 cells after 48 hrs by sulforhodamine B assay; type: functional; settings: COLO 205, 48 h
DU-145 = test: Cytotoxicity against human DU145 cells after 48 hrs by sulforhodamine B assay; type: functional; settings: DU-145, 48 h
Mus musculus = test: Toxicity in athymic nude mouse assessed as survival at 400 mg/kg, ip measured after 2 weeks; type: organism-based; parameters: dose 400 mg/kg, route intraperitoneal; settings: in vivo, 336 h
SF-539 = test: Cytotoxicity against human SF539 cells after 48 hrs by sulforhodamine B assay; type: functional; settings: SF-539, 48 h
HCC 2998 = test: Cytotoxicity against human HCC2998 cells after 48 hrs by sulforhodamine B assay; type: functional; settings: HCC 2998, 48 h
OVCAR-8 = test: Cytotoxicity against human OVCAR8 cells after 48 hrs by sulforhodamine B assay; type: functional; settings: OVCAR-8, 48 h
SK-MEL-5 = test: Cytotoxicity against human SK-MEL-5 cells after 48 hrs by sulforhodamine B assay; type: functional; settings: SK-MEL-5, 48 h
OVCAR-3 = test: Cytotoxicity against human OVCAR3 cells after 48 hrs by sulforhodamine B assay; type: functional; settings: OVCAR-3, 48 h
NCI-H322M = test: Cytotoxicity against human NCI-H322M cells after 48 hrs by sulforhodamine B assay; type: functional
UACC-257 = test: Cytotoxicity against human UACC257 cells after 48 hrs by sulforhodamine B assay; type: functional; settings: UACC-257, 48 h
K562 = test: Cytotoxicity against human K562 cells after 48 hrs by sulforhodamine B assay; type: functional; settings: K562, 48 h
CAKI-1 = test: Cytotoxicity against human CAKI-1 cells after 48 hrs by sulforhodamine B assay; type: functional; settings: CAKI-1, 48 h
U-251 = test: Cytotoxicity against human U251 cells after 48 hrs by sulforhodamine B assay; type: functional; settings: U-251, 48 h
SF-268 = test: Cytotoxicity against human SF268 cells after 48 hrs by sulforhodamine B assay; type: functional; settings: SF-268, 48 h
HOP-92 = test: Cytotoxicity against human HOP92 cells after 48 hrs by sulforhodamine B assay; type: functional; settings: HOP-92, 48 h
A498 = test: Cytotoxicity against human A498 cells after 48 hrs by sulforhodamine B assay; type: functional; settings: A498, 48 h

With `CCN(CC)c1ccc(/C=N/NC(=O)c2ccccc2Nc2ccnc(C(F)(F)F)c2)c(O)c1` the GI50 (HCT-116) was 100 nM, the GI50 (HT-29) was 347 nM and the GI50 (SW-620) was 363 nM. The GI50 (HCT-15) was 50.1 nM, the GI50 (BT-549) was 347 nM and the GI50 (IGROV-1) was 79.4 nM. For the same compound, the GI50 (NCI-H226) was 151 nM, the GI50 (NCI-H460) was 67.6 nM and the GI50 (SN12C) was 240 nM. It also gave a GI50 (A549) of 309 nM, a GI50 (HOP-62) of 105 nM and a GI50 (Malme-3M) of 339 nM. The GI50 (NCI-H23) was 513 nM, the GI50 (KM12) was 251 nM and the GI50 (SNB-75) was 209 nM. The GI50 (T47D) was 550 nM, the GI50 (M14) was 129 nM and the GI50 (ACHN) was 79.4 nM. The GI50 (HL-60(TB)) was 251 nM, the GI50 (RXF 393) was 251 nM and the GI50 (OVCAR-5) was 200 nM. The GI50 (SF-295) was 251 nM, the GI50 (NCI/ADR-RES) was 263 nM and the GI50 (SNB-19) was 479 nM. The GI50 (SK-MEL-2) was 501 nM, the GI50 (MDA-MB-231) was 195 nM and the GI50 (TK-10) was 166 nM. For the same compound, the GI50 (MOLT-4) was 79.4 nM, the GI50 (SR) was 138 nM and the GI50 (MDA-MB-468) was 151 nM. The GI50 (SK-MEL-28) was 240 nM, the GI50 (UO-31) was 141 nM and the GI50 (CCRF-CEM) was 31.6 nM. It also gave a GI50 (MDA-MB-435) of 457 nM, a GI50 (PC-3) of 263 nM and a GI50 (LOX IMVI) of 79.4 nM. The GI50 [1] was 158 nM, the GI50 (OVCAR-4) was 87.1 nM and the GI50 (UACC-62) was 214 nM. For the same compound, the GI50 (MCF7) was 288 nM, the GI50 (NCI-H522) was 263 nM and the GI50 [2] was 871 nM. It also gave a GI50 (786-0) of 182 nM, a GI50 (SK-OV-3) of 174 nM and a GI50 (RPMI-8226) of 41.7 nM. For the same compound, the GI50 (COLO 205) was 174 nM, the GI50 (DU-145) was 126 nM and the Activity (Mus musculus) was “Non-toxic”. The GI50 (SF-539) was 245 nM, the GI50 (HCC 2998) was 191 nM and the GI50 (OVCAR-8) was 209 nM. The GI50 (SK-MEL-5) was 158 nM, the GI50 (OVCAR-3) was 126 nM and the GI50 (NCI-H322M) was 100 nM. The GI50 (UACC-257) was 324 nM, the GI50 (K562) was 380 nM and the GI50 (CAKI-1) was 63.1 nM. The GI50 (U-251) was 126 nM, the GI50 (SF-268) was 69.2 nM and the GI50 (HOP-92) was 251 nM. The GI50 (A498) was 178 nM.
